Here are results for two molecules from ChEMBL document CHEMBL3044543, “Synthetic sialic-acid-containing polyvalent antiviral inhibitors” (Med Chem Res, 2009).

In assay [1] the target is Hemagglutinin (Influenza A virus, UniProt K7N5L2). Nature of the assay: Binding affinity to Influenza virus A Hemagglutinin.
For assay [2], the target named is Hemagglutinin (Influenza A virus) (UniProt K7N5L2). Nature of the assay: Inhibition of Influenza virus A/H3N2/NIB/44/90M Hemagglutinin after 2 hr by horseradish peroxidase assay relative to Neu5Aalpha.

Take `CC(=O)N[C@H]1[C@H]([C@H](O)[C@H](O)CO)OC(OCCCCCCC(=O)NCc2cccc3ccccc23)(C(=O)O)C[C@@H]1OC(=O)CNS(=O)(=O)c1cccc2c(N(C)C)cccc12` (some centres not stated): the IC50 (as a rule, the midpoint of a concentration-inhibition curve) in assay [1] was 3 mM.

Regarding `CC(=O)N[C@H]1[C@H]([C@H](O)[C@H](O)CO)OC(OCc2ccc(NC(=O)CNC(=O)CCCCC(=O)NCC(=O)NCC(=O)NCC(=O)NCC(=O)NCC(=O)NCC(=O)NCC(=O)NCC(CNC(=O)CNC(=O)CNC(=O)CNC(=O)CNC(=O)CNC(=O)CNC(=O)CNC(=O)CCCCC(=O)NCC(=O)Nc3ccc(COC4(C(=O)O)C[C@H](O)[C@@H](NC(C)=O)[C@H]([C@H](O)[C@H](O)CO)O4)cc3)(CNC(=O)CNC(=O)CNC(=O)CNC(=O)CNC(=O)CNC(=O)CNC(=O)CNC(=O)CCCCC(=O)NCC(=O)Nc3ccc(COC4(C(=O)O)C[C@H](O)[C@@H](NC(C)=O)[C@H]([C@H](O)[C@H](O)CO)O4)cc3)CNC(=O)CNC(=O)CNC(=O)CNC(=O)CNC(=O)CNC(=O)CNC(=O)CNC(=O)CCCCC(=O)NCC(=O)Nc3ccc(COC4(C(=O)O)C[C@H](O)[C@@H](NC(C)=O)[C@H]([C@H](O)[C@H](O)CO)O4)cc3)cc2)(C(=O)O)C[C@@H]1O` (some centres not stated), in assay [2], the Ratio is 1000.
